Test results from PMC10999543, “Identification of kinase modulators as host-directed therapeutics against intracellular methicillin-resistant Staphylococcus aureus” (Frontiers in Cellular and Infection Microbiology, 2024).

Assays:
[1] = tested on: MCF7 cells; assay type: cell-based, human; settings: 10 µM
Procedure: (§1) Before harvesting or lysing the cells of the intracellular infection assays, the supernatant from the cells was collected to quantify LDH release by the cells using the LDH cytotoxicity detection kit (Roche, Merck, Darmstadt, Germany) according to the manufacturer’s instructions. Triton X-100 results in maximum LDH release by permeabilizing the cells and was used as positive control. Quantification was performed with the EnVision plate reader.

[2] = tested on: A549 cells; assay type: cell-based, human; settings: 10 µM
Procedure: as §1

[3] = tested on: other strains of S. aureus; assay: CFU count in HeLa cells infected with other strains of S. aureus; assay type: cell-based, Staphylococcus aureus; settings: Supplementary Figure S8A
Procedure: The cells were resuspended in cell culture medium without antibiotics, seeded with 10,000 cells/well into Costar flat-bottom 96-well plates (Corning, Amsterdam, the Netherlands), and were incubated overnight at 37°C/5% CO2. The next day, the bacteria were centrifuged at ≥1800 g for 15 min and resuspended in cold PBS + 5 mM ethylenediaminetetraacetic acid (EDTA). The number of CFUs present in the bacterial suspension was estimated from the optical density at 600 nm (OD600) by assuming 8x10^8 CFUs to be present in a bacterial suspension with OD600 = 1, based on prior titrations. The bacterial suspension was diluted in cell culture medium without antibiotics and added to the cells. Accuracy of the multiplicity of infection (MOI) was validated by plating serial dilutions of the MRSA inoculums on Difco TS agar plates (BD Biosciences). The calculated mean MOI throughout all experiments was 6.8 ± 4.6 (mean ± SD). Infected cells were centrifuged for 3 min at 150 g and incubated for 1 hour at 37°C/5% CO2. Next, the cells were incubated with fresh cell culture medium supplemented with 30 µg/ml gentamicin sulphate (Lonza BioWhittaker, Basel, Switzerland) for 15 min at 37°C/5% CO2 to kill residual extracellular bacteria. […]

[4] = tested on: LC3; assay: Autophagosome formation by western blot (LC3-II/LC3-I); assay type: cell-based, human; settings: MRSA-infected HeLa cells
Procedure: HeLa cells were seeded with 100,000 cells/well in 24-wells plates. In short, the cells were lysed in EBSB buffer (10% v/v glycerol, 3% SDS, 100 mM Tris-HCl, pH 6.8) supplemented with one tablet of cOmplete EDTA-free protease inhibitor cocktail (Sigma-Aldrich) and proteins were denaturated at 95°C for 5 min. Protein concentrations were determined using a Pierce™ BCA protein assay kit (Thermo Fisher Scientific). Samples were diluted in Laemmli sample buffer and loaded on a 15-well 4–20% Mini-PROTEAN® TGX™ Precast Protein Gel for electrophoresis (both from Bio-Rad, Hercules, CA, USA). […] Membranes were blocked for 1h in PBS supplemented with 5% w/v non-fat dry milk. Next, the membranes were cut and each protein was separately stained with primary antibodies against actin and LC3B in PBS supplemented with 5% w/v non-fat dry milk, or against AMPKα and AMPKα-pThr172 in PBS supplemented with 5% BSA (antibodies listed in Supplementary Table S1 ). Membranes were stained with secondary antibodies in PBS supplemented with 5% w/v non-fat dry milk. After each staining, membranes were washed four times in PBS + 0.1% Tween20. Prior to revelation, the membranes were incubated for 10 min in enhanced chemiluminescence (ECL) Prime Western Blotting System reagent (GE Healthcare, Hoevelaken, The Netherlands). […] Protein bands were quantified using Fiji software ([Schindelin et al., 2012]).

[5] = tested on: bioluminescent strain of MRSA; assay: Real-time bioluminescence of MRSA-lux after infection of HeLa cells; assay type: cell-based, Staphylococcus aureus; settings: 10 µM, infected HeLa cells
Procedure: The cells were resuspended in cell culture medium without antibiotics, seeded with 10,000 cells/well into Costar flat-bottom 96-well plates (Corning, Amsterdam, the Netherlands), and were incubated overnight at 37°C/5% CO2. The next day, the bacteria were centrifuged at ≥1800 g for 15 min and resuspended in cold PBS + 5 mM ethylenediaminetetraacetic acid (EDTA). The number of CFUs present in the bacterial suspension was estimated from the optical density at 600 nm (OD600) by assuming 8x10^8 CFUs to be present in a bacterial suspension with OD600 = 1, based on prior titrations. The bacterial suspension was diluted in cell culture medium without antibiotics and added to the cells. […] The calculated mean MOI throughout all experiments was 6.8 ± 4.6 (mean ± SD). […]
MRSA cultures at a concentration corresponding to an absorbance of 0.1 at 600 nm were incubated with the kinase inhibitors at 10 μM in flat-bottom 96-well plates. The absorbance was measured using an EnVision plate reader (PerkinElmer). The plates were incubated at 37°C overnight and the absorbance was measured again the next day. Real-time measurement of bioluminescence by the MRSA-lux strain was performed in a white flat-bottom 96-wells plate using a SpectraMax i3x plate reader and an integration time set at 9000 ms.

[6] = tested on: HER2; set-up: method as in Elkins et al., 2016; settings: PKIS1, Caliper assay, ref Elkins et al., 2016; cited from earlier work

**Q.** Which “cell viability of MRSA-infected cells (LDH-release)” value [1] does the source give for `CC(C)c1nc(-c2cccc(NS(=O)(=O)c3c(F)cccc3F)c2F)c(-c2ccnc(Nc3ccc(N4CCOCC4)nc3)n2)s1` [GSK2008607A] here?
**A.** The value was “significantly improved the overall survival”.

**Q.** For `COc1ccc2[nH]c3c4[nH]c5ccc(OC)cc5c4c4c(c3c2c1)C(=O)NC4=O` [GW296115X], which “cell viability of MRSA-infected cells (LDH-release)” value [2] is on record?
**A.** Its value is “rescued the loss of viability”.

**Q.** And the “activity against other strains of S. aureus (CFU)” value [3]?
**A.** Its value is “active”.

**Q.** And the “accumulation of LC3-II” value ([4]; in the presence of bafilomycin A1 (100 nM))?
**A.** Its value is “strong accumulation of LC3-II”.

**Q.** And the “formation of LC3-II” value ([4]; without bafilomycin)?
**A.** The value was “not affected”.

**Q.** What about the “effect on bioluminescent MRSA growth over time” value [5] of the same compound?
**A.** The value was “acts rapidly”.

**Q.** For `O=S(=O)(CCNCc1ccc(-c2ccc3ncnc(Nc4ccc(OCc5cccc(F)c5)c(Cl)c4)c3c2)o1)c1ccccc1` [GW633459A], which “% inhibition at 1 µM HER2” value [6] is on record?
**A.** Its value is 60%.
